The record followed here is PubChem BioAssay (NCI).

Test systems include OVCAR-4 ovarian; SN12K1 renal; SK-MEL-28 melanoma; XF 498 CNS; CCRF-CEM leukemia; SK-MEL-2 melanoma; SNB-75 CNS; IGROV1 ovarian; SF-268 CNS; UACC-257 melanoma; HCT-116 colon; DLD-1 colon; SF-539 CNS; KM12 colon; T-47D breast; M14 melanoma; HS 578T breast; ACHN renal; BT-549 breast; MDA-N.
What all share (test): NCI anticancer screen, dose series, 48 h

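Following 48 hours of exposure in 96-well plates, responses at five concentrations were used to interpolate endpoints linearly. At the TGI there is no net growth.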

Consider `CCC1=CC2CN3CCc4c([nH]c5ccccc45)C(C(=O)OC)(C2)C13` (stereo unspecified), for which the TGI in the test on OVCAR-4 ovarian worked out at 75.3 µM; with SN12K1 renal, 39.6 µM; in the test with SK-MEL-28 melanoma, 98.4 µM; in the test with XF 498 CNS, 76.3 µM; with CCRF-CEM leukemia it was 252 µM; with SK-MEL-2 melanoma it was 114 µM. In addition, the TGI with SNB-75 CNS came to 89.9 µM; in the test on IGROV1 ovarian, 105 µM; in the test with SF-268 CNS it was 101 µM; with UACC-257 melanoma it was 104 µM; in the test with HCT-116 colon it was 71 µM; with DLD-1 colon it was 87.5 µM. The TGI with SF-539 CNS was 92.8 µM; in the test with KM12 colon, 41.8 µM.

As for `CC1(C23CC4CC(CC(C4)C2)C3)n2c(=O)n(-c3ccccc3)c(=O)n2C1(C)C12CC3CC(CC(C3)C1)C2` (stereo unspecified), the TGI with T-47D breast, in the test with M14 melanoma, with HS 578T breast, with SK-MEL-28 melanoma, with ACHN renal and with CCRF-CEM leukemia was above 100 µM each time. Moreover, the TGI with SK-MEL-2 melanoma, with SNB-75 CNS, in the test with IGROV1 ovarian, in the test on SF-268 CNS, in the test with UACC-257 melanoma and in the test with BT-549 breast was above 100 µM in each case. Also, the TGI in the test with MDA-N, in the test with SF-539 CNS and with KM12 colon was above 100 µM in each case.

Turning to `CCOC(=O)c1csc(NC(=O)CCN2CCCCC2)n1`, the TGI with T-47D breast, in the test with M14 melanoma, in the test with OVCAR-4 ovarian, in the test on SK-MEL-28 melanoma, in the test with ACHN renal and in the test with CCRF-CEM leukemia was above 100 µM throughout. In addition, the TGI in the test with SK-MEL-2 melanoma, in the test on IGROV1 ovarian, in the test on UACC-257 melanoma, with MDA-N and in the test on SF-539 CNS was above 100 µM throughout.

On to `CN1C2CC(=O)CC1[C@H](O)[C@@H]2O`, for which the TGI in the test with T-47D breast, in the test on M14 melanoma, in the test with SK-MEL-28 melanoma, with CCRF-CEM leukemia, in the test on SK-MEL-2 melanoma and in the test on SF-268 CNS was above 100 µM throughout. The TGI with UACC-257 melanoma, with HCT-116 colon, in the test with BT-549 breast, in the test with MDA-N and in the test with KM12 colon was above 100 µM throughout.
